Where a name gives a salt, the structure may show the parent alone.
Target: ^3 H-nitrendipine binding, membrane preparation obtained from the cortex of the rat brain
Assay: displacement of tritium-labeled nitrendipine in a membrane preparation from the cortex of the rat brain
Conditions: ^3 H-nitrendipine 0.1 nM, 25° C., 60 min, pH 7.4; unspecific binding with 1 μM nifedipine
Method: We carried out this test in a membrane preparation obtained from the cortex of the rat brain and washed several times, the method which we used being essentially that of R. J. Gould et al. (Proc. Natl. Acad. Sci. USA 79, 3656 [1982]). […] The membrane fractions were removed by vacuum filtration through Whatman GF/F fiber glass filters, and the radioactivity was measured in a liquid scintillation counter. We determined the unspecific ^3 H-nitrendipine binding in the presence of 1 μM nifedipine. The IC50 is determined as characteristic quantity, i.e. the concentration of test substance which is able to displace 50% of the radiolabeled nitrendipine.

Compound	IC50
Fc1ccc(C(CCCN2CCN(CCSc3ccc(Cl)cc3)CC2)c2ccc(F)cc2)cc1 [Example 1, 1-[4,4-bis(4-fluorophenyl)butyl]-4-[2-(4-chlorophenylthio)ethyl]piperazine]	4 nM
Cc1ccc(SCCN2CCN(CCCC(c3ccc(F)cc3)c3ccc(F)cc3)CC2)cc1 [Example 2, 1-[4,4-bis(4-fluorophenyl)butyl]-4-[2-(4-methylphenylthio)ethyl]piperazine dihydrochloride]	20 nM
Fc1ccc(SCCN2CCN(CCCC(c3ccc(F)cc3)c3ccc(F)cc3)CC2)cc1 [Example 3, 1-[4,4-bis(4-fluorophenyl)butyl]-4-[2-(4-fluorophenylthio)ethyl]piperazine dihydrochloride]	7 nM
O=[N+]([O-])c1ccc(SCCN2CCN(CCCC(c3ccc(F)cc3)c3ccc(F)cc3)CC2)cc1 [Example 4, 1-[4,4-bis(4-fluorophenyl)butyl]-4-[2-(4-nitrophenylthio)ethyl]piperazine dihydrochloride]	22 nM
Fc1ccc(C(CCCN2CCN(CCSc3cccc(Cl)c3)CC2)c2ccc(F)cc2)cc1 [Example 5, 1-[4,4-bis(4-fluorophenyl)butyl]-4-[2-(3-chlorophenylthio)ethyl]piperazine dihydrochloride]	1.2 nM
Cc1cccc(C)c1NC(=O)CN1CCN(CCCC(c2ccc(F)cc2)c2ccc(F)cc2)CC1 [Lidoflazine, lidoflazine, reference compound]	430 nM

Source: patent publication US4933346A, “Diarylalkyl piperazine derivatives, a process for their preparation, their use, and medicaments containing them” (Hoechst Aktiengesellschaft, priority 1987, dated 1990)
